# Biological target: T1, dehydropeptidase-I (renal dipeptidase, EC 3.4.13.11) (Sus scrofa, UniProt P22412)
# T1 construct: isolated from hog kidneys; from tissue; host or cells: hog kidney, solubilized and lyophilized enzyme preparation
# T1 sequence (P22412 17-409): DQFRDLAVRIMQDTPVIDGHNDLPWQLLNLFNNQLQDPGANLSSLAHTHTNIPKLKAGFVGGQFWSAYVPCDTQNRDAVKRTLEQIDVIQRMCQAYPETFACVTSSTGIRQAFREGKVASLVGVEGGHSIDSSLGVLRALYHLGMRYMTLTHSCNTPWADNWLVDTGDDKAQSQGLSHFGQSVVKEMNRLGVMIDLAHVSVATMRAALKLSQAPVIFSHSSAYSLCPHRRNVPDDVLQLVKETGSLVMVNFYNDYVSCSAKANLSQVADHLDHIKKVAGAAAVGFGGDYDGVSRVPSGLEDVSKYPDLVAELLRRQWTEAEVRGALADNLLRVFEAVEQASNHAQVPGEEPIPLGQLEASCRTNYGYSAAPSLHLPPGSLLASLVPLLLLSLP
# Test: Renal dehydropeptidase I inhibition (hydrolysis of glycyldehydrophenylalanine)
# Type: biochemical, hog
# Settings: not given
# Method: This measured the ability of compounds to inhibit hydrolysis of glycyldehydrophenylalanine (GDP) by a solubilized preparation of […] isolated from hog kidneys. The procedure is as follows: to a 1 ml system containing 50 mM "MOPS" (3-(N-morpholino)propanesulfonic acid) buffer, pH 7.1, is added 5 μg of lyophilized enzyme, and the test compound at a final concentration of 0.1 mM. After a five minute incubation at 37° C., GDP is added to a final concentration of 0.05 mM. […] Inhibition of the enzyme is gauged by comparison to a standard run containing no inhibitor and is expressed as the inhibitor binding constant, Ki.
row,SMILES,Ki [nM]
1,"CC(CP(=O)(O)[C@@H](C)N)C(=O)O (stereo partly drawn) [D, R2 methyl, R3 H, 1-D-Aminoethyl-(2-carboxy-1-propyl)phosphinic acid]",140
2,"C=C(CP(=O)(O)[C@@H](C)N)C(=O)O [D, R5 H]",230
3,"CC(CP(=O)(O)C(C)N)C(=O)O (stereo not drawn) [DL, R2 methyl, R3 H, 1-Aminoethyl-(2-carboxy-1-propyl)phosphinic acid]",10
4,"CC(CP(=O)(O)[C@H](C)N)C(=O)O (stereo partly drawn) [L, R2 methyl, 1-L-Aminoethyl-(2-carboxy-1-propyl)phosphinic acid]",10
5,"C[C@H](N)P(=O)(O)CC(CCCc1ccccc1)C(=O)O (some centres unmarked) [L, R2 phenylpropyl]",27
6,"C=C(CP(=O)(O)[C@H](C)N)C(=O)O [L, R5 H]",27

# Same assay, conditions: read-out: RENAL DEHYDROPEPTIDASE I INHIBITION Ki
row,SMILES,Ki [nM]
1,"CCCCCC=C(CP(=O)(O)C(C)N)C(=O)O (racemic) [DL, R5 n-pentyl, (E, Z isomers), 1-Aminoethyl-(2-carboxy-oct-2-enyl)phosphinic acid (E/Z mixture)]",5.8
2,"C[C@@H](N)P(=O)(O)CC(CCCc1ccccc1)C(=O)O (some centres unmarked) [D, R2 phenylpropyl]",1000
3,"CC(N)P(=O)(O)CC(CCCc1ccncc1)C(=O)O (stereo not drawn) [DL, R2 4-pyridylpropyl, 1-Aminoethyl-[2-carboxy-5-(4-pyridyl)-1-n-pentyl]-phosphinic acid]",12
4,"CC(N)P(=O)(O)C/C(=C/CCc1ccccc1)C(=O)O (stereo not drawn) [DL, R5 phenethyl, E]",7
5,"CC(N)P(=O)(O)C/C(=C\CCc1ccccc1)C(=O)O (stereo not drawn) [DL, R5 phenethyl, Z, 1-Aminoethyl-(2-carboxy-5-phenyloct-2-enyl)phosphinic acid (E and Z isomers)]",16
